Test results from patent US20250313555A1, “2-SUBSTITUTED THIAZOLE AND BENZOTHIAZOLE COMPOSITIONS AND METHODS AS DUX4 INHIBITORS” (ALTAY THERAPEUTICS, INC., priority 2022, published 2025).

Legend:
Assay type in all cases: cell-based
[1] = Cell cytotoxicity 50 assay (CC50), MB200 cells, cell titer glo; conditions: human
Procedure, shortened: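 Luminescence from CellTiter-Glo after 72 h of compound exposure at 37 °C gave the CC50 for MB200 cells. These were plated at 10 k cells/well in triplicate in supplemented F10 medium and treated with a serial dilution series prepared from a 10 mM stock.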

DUX4 = target: T1, DUX4 (Homo sapiens, UniProt Q9UBX2); experiment: DUX4 EC50 luciferase reporter protocol in transfected HEK293 cells; conditions: 6 hr
T1 construct: expressed in transfected cells; host or cells: HEK293
Excerpt: EC50 Protocol This example provides a representative protocol for a single well of a 96-well plate. It can be scaled up as necessary for treatment of multiple wells. For negative controls, a well containing reporter DNA, Renilla DNA, and turbofect (without expression vector) were used. For positive controls, wells containing cells that were not treated with any inhibitor were used. They were transfected with the complete DNA lipid complex as set forth below. The DNA-lipid complex for one well of the 96-well plate is prepared by adding to a tube 100 ng of the transfection factor (TF) expression vector, 100 ng of TF reporter DNA, 10 ng of Renilla reporter DNA, […] Turbofect transfection reagent, and […] of the medium without any serum or penicillin/streptomycin. The combination was mixed by gentle flicking of the tube, and the mixture was pipetted into a well of a 96-well plate. The plate was then gently tapped to spread the combination evenly on the bottom of the well. The well was incubated for 30 min. HEK293 cells were grown until 80% confluent in DMEM supplemented with 10% fetal bovine serum, 1% penicillin streptomycin, and 1% amphotericin B. The adherent cells growing on a 10 cm plate were trypsinized with 1 mL of prewarmed trypsin. Once the cells detached from the plate, 10 mL of medium was added, and the cells were strained through a […] cell strainer. The cells were counted using a mixture of 10 mL cell suspension with 10 mL of trypan blue. Once the total number of cells are counted, a dilution of 150 k/mL was prepared. After incubation of the transfection complex was complete, […] of HEK293s (23.25 k total cells) were gently dispensed on top of the wells containing the 25 mL transfection complex, producing a total volume of about 180 mL. The mixture was then incubated for 24 h. To treat cells with each inhibitor, the inhibitors were prepared in the same growth medium. In a deep well block, the regular medium with serum was added to well 1 (135 mL) and to wells 2 through 10 (100 mL). To the first well was added 15 mL of 10 nM inhibitor. The final concentration of the drug in well 1 was 1 nM. The wells were pipeted up and down, and 50 mL was transferred from well 1 to well 2 (1/3 dilution). The well was mixed, and the seriation dilution was repeated with the remaining wells. Once the serial dilution was complete, using a multichannel pipet, 20 mL of each inhibitor were transferred to designated wells in a 96-well plate. […] Before the assay, a sufficient amount of 1× passive lysis buffer was prepared. The luciferase substrate buffer (Promega) was thawed completely and then mixed with the lyophilized luciferase substrate. The stop buffer (Promega) was also completely thawed. (1) Cell lysis: After treatment of the cells was complete, all the cell media is removed by flipping the 96-well plate over and tapping it dry on a dry paper towel. Immediately afterwards, the 1× passive lysis buffer (25 μL) was added. The plates were then placed on a rocker for 15 minutes at medium speed. (2)Measuring luciferase signal: The luciferase substrate solution for all wells was placed in a solution basin. The luciferase substrate solution was then added to every well (100 μL/well) using a multichannel pipette. The total luminescence was then read immediately using a plate reader. (3)Measuring Renilla signal: The “complete stop solution” was prepared in a solution basin by mixing the buffer with the 50× stop solution substrate (Promega) to make the final 1× solution. The complete stop solution was added to each well (50 μL/well) using a multichannel pipette. The total luminescence was then read immediately using a plate reader. Using a spreadsheet (e.g., Excel), the luciferase signal was divided by the renilla signal to get a relative luciferase unit.

[2] = Cell cytotoxicity 50 assay (CC50), HEK cells; conditions: human
Procedure, shortened: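 CC50 was fitted from total luminescence, measured 5 min after adding CellTiter-Glo reagent to HEK cells. The cells had been exposed for 72 h at 37 °C to medium serial dilutions prepared from a 10 mM drug solution.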

T1 sequence (Q9UBX2 whole entry): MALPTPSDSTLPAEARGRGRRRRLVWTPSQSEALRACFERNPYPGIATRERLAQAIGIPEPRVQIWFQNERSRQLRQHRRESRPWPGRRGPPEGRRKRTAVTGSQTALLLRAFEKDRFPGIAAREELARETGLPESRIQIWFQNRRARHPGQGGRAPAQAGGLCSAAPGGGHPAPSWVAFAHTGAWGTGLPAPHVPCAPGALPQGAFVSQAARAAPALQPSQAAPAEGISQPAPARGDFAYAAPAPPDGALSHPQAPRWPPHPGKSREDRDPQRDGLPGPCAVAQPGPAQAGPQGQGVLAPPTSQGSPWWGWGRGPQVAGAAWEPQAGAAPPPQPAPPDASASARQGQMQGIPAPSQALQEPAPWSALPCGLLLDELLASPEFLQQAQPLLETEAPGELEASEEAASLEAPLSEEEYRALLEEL

Row | SMILES | CC50 at 72 h [1] [µM] | EC50 (DUX4) [µM] | CC50 at 72 h [2] [µM]
1 | CC(=O)N[C@@H]1CC[C@H](C(=O)Nc2nc3ccccc3s2)C1 [Compound 182] | > 10 | > 10 | > 10
2 | CC(=O)NCCCC(=O)N[C@H]1CC[C@H](Cc2nc3ccccc3s2)CC1 [Compound 172] | > 10 | > 10 | > 10
3 | CC(=O)N[C@@H]1CC[C@@H](C(=O)Nc2nc3ccccc3s2)C1 [Compound 185] | > 10 | > 10 | > 10
4 | CC(=O)NCCCC(=O)NCCCc1nc2ccccc2s1 [Compound 106] | > 10 | > 10 | > 10
5 | CC(=O)NC1CCC(C(=O)Nc2nc3ccccc3s2)C1 (centres unmarked) [Compound 131] | > 10 | > 10 | > 10
6 | O=C(CCCN1C(=O)CCC1=O)NC1CCCC1c1nc2ccccc2s1 (centres unmarked) [Compound 92] | > 10 | > 10 | > 10
7 | CC(=O)NCCCC(=O)N[C@@H]1CC[C@H](c2nc3ccccc3s2)C1 [Compound 114] | > 10 | > 10 | > 10
8 | O=C(CCCN1CCCC1=O)NCCCc1nc2ccccc2s1 [Compound 118] | > 10 | > 10 | > 10
9 | O=C(CCCN1C(=O)CCC1=O)N[C@H]1CC[C@H](c2nc3ccccc3s2)C1 [Compound 161] | – | > 10 | –
10 | CC(=O)NCCCC(=O)Nc1cc(C)cc(-c2nc3ccccc3s2)c1 [Compound 72] | > 10 | > 10 | > 10
11 | CC(=O)NCCCNC(=O)c1cc(C#N)cc(-c2nc3cc(F)ccc3s2)c1 [Compound 188] | > 10 | > 10 | > 10
12 | CC(=O)NCCCC(=O)N[C@H]1C[C@H](c2nc3ccccc3s2)C1 [Compound 112] | > 10 | > 10 | > 10
13 | O=C(CCC1CCC(=O)N1)Nc1ccc(-c2nc3ccccc3s2)o1 (centres unmarked) [Compound 179] | > 10 | > 10 | > 10
14 | O=C(CCCc1cccnc1)N[C@H]1CC[C@@H](c2nc3ccccc3s2)CC1 [Compound 163] | > 10 | > 10 | > 10
15 | O=C(CCCN1CCCC1=O)NC1CCCC1c1nc2ccccc2s1 (centres unmarked) [Compound 117] | > 10 | > 10 | > 10
16 | CC(=O)NCCCC(=O)Nc1nc(-c2ccccc2)cs1 [Compound 126] | > 10 | > 10 | > 10
17 | CC(C)(NC(=O)CCCN1CCCC1=O)c1ccc(-c2nc3ccccc3s2)cc1 [Compound 110] | > 10 | > 10 | > 10
18 | CC(=O)NCCCc1nc(CCCC(=O)Nc2ccc(-c3nc4cc(F)ccc4s3)cc2)co1 [Compound 138] | > 10 | > 10 | 1 to 10
19 | O=C(CCCCN1C(=O)CCC1=O)N[C@H]1CC[C@@H](c2nc3ccccc3s2)CC1 [Compound 151] | > 10 | > 10 | > 10
20 | CC(=O)NC1CCC(C(=O)N[C@H]2CC[C@H](c3nc4ccccc4s3)CC2)C1 (some centres unmarked) [Compound 134] | > 10 | > 10 | > 10
21 | O=C(CCCN1C(=O)CCC1=O)NC1CCC(Cc2nc3ccccc3s2)C1 (centres unmarked) [Compound 158] | > 10 | > 10 | > 10
22 | CC(=O)NCCCC(=O)Nc1cc(Cl)cc(-c2nc3ccccc3s2)c1 [Compound 101] | > 10 | > 10 | > 10
23 | CC(=O)NCCCNC(=O)c1ccc(-c2nc3ccccc3s2)o1 [Compound 149] | > 10 | > 10 | > 10

Row | SMILES | CC50 at 72 h [1] [µM] | EC50 (DUX4) [µM] | CC50 at 72 h [2] [µM]
24 | O=C(CCN1CCCC1=O)Nc1ccc(Cc2nc3ccccc3s2)cc1 [Compound 8] | > 10 | > 10 | > 10
25 | O=C(CCCN1C(=O)CCC1=O)NCCCc1nc2ccccc2s1 [Compound 91] | > 10 | > 10 | > 10
26 | CC(=O)NCCCC(=O)N[C@H]1C[C@@H](c2nc3ccccc3s2)C1 [Compound 113] | > 10 | > 10 | > 10
27 | O=C(CCCN1C(=O)CCC1=O)NC1CC(c2nc3ccccc3s2)C1 (centres unmarked) [Compound 89] | > 10 | > 10 | > 10
28 | CC(=O)NCCCC(=O)Nc1cc(Cl)cc(-c2nc3cc(F)ccc3s2)c1 [Compound 102] | > 10 | > 10 | > 10
29 | O=C(NCCc1cncnc1)c1ccc(-c2nc3ccccc3s2)cc1 [Compound 11] | > 10 | > 10 | > 10
30 | O=C(CCCc1cnco1)Nc1ccc(Cc2nc3ccccc3s2)cc1 [Compound 66] | > 10 | > 10 | > 10
31 | O=C(NCCCN1C(=O)CCC1=O)c1ccc(-c2nc3ccccc3s2)cc1 [Compound 7] | > 10 | > 10 | > 10
32 | O=C(CCCN1C(=O)CCC1=O)Nc1nc2ccccc2s1 [Compound 108] | – | > 10 | –
33 | O=C(CCCN1C(=O)CCC1=O)N[C@@H]1CC[C@@H](c2nc3ccccc3s2)C1 [Compound 162] | > 10 | > 10 | > 10
34 | CC(=O)NCCCC(=O)Nc1nc2ccccc2s1 [Compound 107] | > 10 | > 10 | > 10
35 | CN(C(=O)CCCN1C(=O)CCC1=O)c1ccc(Cc2nc3ccccc3s2)cc1 [Compound 169] | > 10 | > 10 | > 10
36 | CC(=O)NCCCNC(=O)C12CCC(c3nc4ccccc4s3)(CC1)CC2 [Compound 173] | > 10 | > 10 | > 10
37 | O=C(NCCN1C(=O)CCC1=O)c1ccc(-c2nc3ccccc3s2)cc1 [Compound 22] | > 10 | > 10 | > 10
38 | CC(=O)CCCCC(=O)Nc1ccc(-c2nccs2)cc1 [Compound 23] | > 10 | > 10 | > 10
39 | CC(=O)N[C@H]1CC[C@@H](C(=O)Nc2nc3ccccc3s2)C1 [Compound 183] | > 10 | > 10 | > 10
40 | CN(C(=O)CCCN1C(=O)CCC1=O)c1ccc(-c2nc3cc(F)ccc3s2)cc1 [Compound 144] | > 10 | > 10 | > 10
41 | O=C(Cc1ccc(-c2nc3ccccc3s2)cc1)NCCN1CCCC1=O [Compound 119] | > 10 | > 10 | > 10
42 | O=C(CCCc1cccnc1)NC1CCC(c2nc3ccccc3s2)C1 (centres unmarked) [Compound 157] | > 10 | > 10 | > 10
43 | O=C(CCCc1cccnc1)N[C@H]1CC[C@H](c2nc3ccccc3s2)CC1 [Compound 164] | > 10 | > 10 | > 10
44 | CN(C(=O)CCC1CCC(=O)N1)c1ccc(-c2nc3ccccc3s2)cc1 (centres unmarked) [Compound 177] | > 10 | > 10 | > 10
45 | O=C(CCC1CCC(=O)N1)Nc1ccc(Cc2nc3ccccc3s2)cc1 (centres unmarked) [Compound 178] | > 10 | > 10 | > 10
